Assay [1] deals with tankyrase 2 protein PARP domain, TNKS2P (GST-tagged) (Homo sapiens (Human), UniProt Q9H2K2). In words: TNKS2 autoparsylation (AP) biochemical assay, LC/MS detection of nicotinamide. Conditions: 20 nM enzyme, 250 μM NAD+, 60 min room temperature.
Assay [2] concerns the target human tankyrase 1 PARP catalytic domain, TNKS1P (GST-tagged) (Homo sapiens (Human), UniProt O95271). In words: TNKS1 autoparsylation (AP) biochemical assay, LC/MS detection of nicotinamide. To be noted: 20 nM enzyme, 250 μM NAD+, 60 min room temperature. On the procedure:
The human tankyrase 1 PARP catalytic domain, TNKS1P, was cloned into a pDONR221 vector using the Invitrogen Gateway Technology. This entry clone was then subcloned into the destination vector pDEST20 to obtain the N-terminal Glutathione S-transferase (GST)-tagged fusion protein.
The autoparsylation activity of the TNKS 1/2 or PARP1/2 enzymes was measured by the liquid chromatography-mass spectrometry (LC/MS) detection of nicotinamide as readout. Compound activity in inhibiting the TNKS and PARP autoparsylation was evaluated by IC50 measurements.

Assay [3] concerns Wnt ligand-induced signaling. The assay can be described thus: Wnt-responsive Super-TOpFlash (STF) luciferase reporter gene assay in HEK293 cells. In kind it is cell-based. Conditions: Wnt3A condition medium induced. As to the method: Compound activity in inhibiting Wnt ligand-induced signaling was measured using a Wnt-responsive Super-TOpFlash (STF) luciferase reporter gene assay in HEK293 cells. On day 1 of the assay, cells were plated at a density of 8000 cells per well of 384-well plate in 25 μl medium containing 5% fetal bovine serum (FBS). On the second day, […] condition medium (CM) produced from mouse L cells was added to the cells to induce Wnt signaling, followed by addition of 5 μL of compounds each well in 10-point serial dilution. On the third day, the luciferase activity was measured by the Bright-Glo™ Luciferase Assay System following manufacture's protocol (Promega, E2620). The Inhibition was calculated as: (Maximum Wnt-induced signaling−Sample)/(Maximum Wnt-induced signaling−Background)*100. “Maximum Wnt-induced signaling” is the STF signal level induced by 20% Wnt3A CM without compound; and “Background” is the STF signal level without the addition of Wnt3A CM or compound.
(In a reporter assay the amount or activity of a reporter protein is the signal.)

The test system of another assay is Axin2 protein. In words: Cellular ELISA assay for stabilizing the Axin2 protein in SW480 cells. In kind it is cell-based. To be noted: 24 hrs treatment, read-out: Axin AC50. As to the method: Compound activity in stabilizing the Axin2 protein was measured by Sandwich Enzyme-Linked Immuosorbent (ELISA) assay in the colorectal cell line SW480. 30,000 SW480 cells were seeded per well in 96-well plate and incubated overnight prior to compound treatment. Cells were then treated with compounds in 6-point dilution starting at 10 μM for 24 hrs. Cells were then washed with 100 μL of cold Phosphate Buffer Saline (PBS), and lysed in 125 μl of cold 1× lysis buffer (Cell Signaling Technology, 9803) supplemented with Protease inhibitor (Roche, 11836170) and Phosphatase inhibitors (Sigma, P2850, P5726). For the ELISA assay, anti Axin-2 capture antibody (Strategic Diagnostics) antibody was diluted to a concentration of 1 μg/ml (1:1000) in Carbonate Coating buffer, pH 9.2 (Sigma, C3041-50CAP). 100μ of the diluted anti Axin-2 capture antibody per well was then used to coat the 96-well ELISA plate (Thermo Electron Corp., MicroLite 1 flat bottom plate #7571) overnight at 4° C. Plates were then washed three times with 300 μl/well of wash solution, PBST20 (PBS+0.05% Tween), and blocked with 300 μl/well 1% BSA/PBS (BSA, Millipore Probumin #82-045-1) for 1.5 hours at room temperature while shaking gently. After blocking, plates were then washed three times with 300 μl/well of wash solution. 100 μL of prepared SW480 cell lysate was then added to each well and incubated at room temperature for 2 hours while shaking gently. After washing, 100 μL of Biotinylated anti-Axin2 antibody (CST, 2151) was added to each well and incubated room temperature for 2 hours. 100 μL of Streptavidin-HRP (R&D systems, DY998) diluted 1:200 in 1% BSA/PBS was then added in each well and incubate for 30 mins at R/T in the dark. Signal was detected by Chemiluminescence (Pierce SuperSignal ELISA Femto #3704), and measured on PerkinElmer Wallac 1420 plate reader.
In general terms: ELISA stands for enzyme-linked immunosorbent assay.

Assay [4] concerns Non-small lung cancer ABC-1 cells. The assay can be described thus: Cellular proliferation assay, ABC-1 cells (CellTiter-Glo). The class given is cell-based. Conditions: 3 days of compound treatment. As to the method: Non-small lung cancer ABC-1 cells were plated at 5000 cells per well in 96-well plates and treated with 8 serial compound dilutions starting from 10 μM as the highest concentration. Viable cells were measured after 3 days of compound treatment using the CellTiter-Glo assay (Promega, G7570). Assay was performed following the manufacture protocol.
On the technique in general: In ATP-based viability assays light output follows the ATP content of the culture.

Like-named read-outs stand apart in the source and are kept apart here. Where only a bound is given, the exact number is not on record here.

human tankyrase 1 PARP catalytic domain, TNKS1P (GST-tagged), sequence (O95271 1112-1317): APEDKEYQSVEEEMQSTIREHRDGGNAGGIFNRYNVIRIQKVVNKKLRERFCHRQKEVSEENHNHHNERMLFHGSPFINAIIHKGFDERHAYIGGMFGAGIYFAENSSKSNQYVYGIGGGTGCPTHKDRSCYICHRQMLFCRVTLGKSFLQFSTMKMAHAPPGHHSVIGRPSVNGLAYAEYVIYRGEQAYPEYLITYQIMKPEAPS
tankyrase 2 protein PARP domain, TNKS2P (GST-tagged), sequence (Q9H2K2 959-1164): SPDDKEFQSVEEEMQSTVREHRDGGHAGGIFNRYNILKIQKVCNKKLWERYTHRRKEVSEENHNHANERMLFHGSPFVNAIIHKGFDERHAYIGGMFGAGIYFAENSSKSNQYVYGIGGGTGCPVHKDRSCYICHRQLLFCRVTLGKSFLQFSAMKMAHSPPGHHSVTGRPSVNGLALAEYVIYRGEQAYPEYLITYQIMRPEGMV

Turning to `COc1ccc(C(=O)C2CCN(C3CCN(Cc4cccc(Cl)c4C#N)C3=O)CC2)cc1` (stereo not drawn) [Example 1, 2-Chloro-6-{3-[4-(4-methoxy-benzoyl)-piperidin-1-yl]-2-oxo-pyrrolidin-1-ylmethyl}-benzonitrile], the half-maximal inhibitory concentration (IC50) (as a rule, the midpoint of a concentration-inhibition curve) in assay [1] turned out to be 81 ± 1 nM; in assay [2], 162 ± 4 nM; in assay [3] (Homo sapiens), 99 ± 11 nM; in assay [4] (Homo sapiens, 72 h) it was 408 nM. Also, the AC50 (usually the midpoint of the concentration-response curve, whichever way the signal moves) in the assay with Axin2 protein (Homo sapiens) stood at 239 ± 31 nM.

As to `COc1ccc(C(=O)C2CCN([C@@H]3CCN(Cc4nc5c(c(=O)[nH]4)COCC5)C3=O)CC2)cc1` [Example 4, 2-{(R)-3-[4-(4-Methoxy-benzoyl)-piperidin-1-yl]-2-oxo-pyrrolidin-1-ylmethyl}-3,5,7,8-tetrahydro-pyrano[4,3-d]pyrimidin-4-one], the IC50 in assay [1] was found to be 600 ± 330 nM; in assay [2] it was 1600 ± 1200 nM; in assay [3] (Homo sapiens), 95 ± 11 nM; in assay [4] (Homo sapiens, 72 h), 1020 ± 340 nM. In the assay on Axin2 protein (Homo sapiens), the AC50 was 310 ± 270 nM.

As for `COc1ccc(C(=O)C2CCN(C3CCN(Cc4ccc(Cl)c(C#N)c4)C3=O)CC2)cc1` (stereo not drawn) [Example 5, 2-Chloro-5-((3-(4-(4-methoxybenzoyl)piperidin-1-yl)-2-oxopyrrolidin-1-yl)methyl)benzonitrile], the IC50 in assay [1] is 15 ± 1 nM; in assay [2], 36 ± 1 nM; in assay [3] (Homo sapiens), 17 ± 3 nM; in assay [4] (Homo sapiens, 72 h) it was 156 nM. Moreover, the AC50 with Axin2 protein (Homo sapiens) came out at 66 ± 1 nM.

`COc1ccc(C(=O)C2CCN(C3CCN(Cc4nc5ccsc5c(=O)[nH]4)C3=O)CC2)cc1` (stereo not drawn) [Example 7]: the IC50 came to 83 ± 5 nM in assay [1]; 211 ± 63 nM in assay [2]; 54 ± 12 nM in assay [3] (Homo sapiens); 1470 nM in assay [4] (Homo sapiens, 72 h). In the assay on Axin2 protein (Homo sapiens), the AC50 is 451 ± 68 nM.

In the case of `COc1ccc(C(=O)C2CCN(C3CCN(Cc4nc5sc(C)cc5c(=O)[nH]4)C3=O)CC2)cc1` (stereo not drawn) [Example 8], the IC50 in assay [1] came to 141 ± 40 nM; in assay [2], 96 ± 28 nM; in assay [3] (Homo sapiens), 18 ± 4 nM; in assay [4] (Homo sapiens, 72 h) it was 133 nM. Besides, the AC50 in the assay with Axin2 protein (Homo sapiens) came out at 78 ± 13 nM.

For the molecule `O=C(c1ccc(F)cc1)C1CCN([C@@H]2CCN(Cc3nc4c(c(=O)[nH]3)COCC4)C2=O)CC1` [Example 12, 2-{(R)-3-[4-(4-Fluoro-benzoyl)-piperidin-1-yl]-2-oxo-pyrrolidin-1-ylmethyl}-3,5,7,8-tetrahydro-pyrano[4,3-d]pyrimidin-4-one], the IC50 in assay [1] is 2120 ± 50 nM; in assay [2], 5340 ± 340 nM; in assay [3] (Homo sapiens), 620 ± 90 nM; in assay [4] (Homo sapiens, 72 h), over 10000 nM. Moreover, the AC50 in the assay on Axin2 protein (Homo sapiens) is over 10000 nM.

`COc1ccc(C(=O)C2CCN([C@@H]3CCN(Cc4nc5c(c(=O)[nH]4)COCC5)C3=O)CC2)cc1C` [Example 14, 2-{(R)-3-[4-(4-Methoxy-3-methyl-benzoyl)-piperidin-1-yl]-2-oxo-pyrrolidin-1-ylmethyl}-3,5,7,8-tetrahydro-pyrano[4,3-d]pyrimidin-4-one]: the IC50 was 206 ± 20 nM in assay [1]; 711 ± 20 nM in assay [2]; 31 ± 3 nM in assay [3] (Homo sapiens); 149 nM in assay [4] (Homo sapiens, 72 h). Besides, the AC50 in the assay with Axin2 protein (Homo sapiens) came out at 128 ± 130 nM.

In the case of `COc1ccc2c(c1)CC1(CCN(C3CCN(Cc4nc5c(c(=O)[nH]4)COCC5)C3=O)CC1)C2=O` (stereo not drawn) [Example 15, 2-((3-(5-methoxy-1-oxo-1,3-dihydrospiro[indene-2,4′-piperidine]-1′-yl)-2-oxopyrrolidin-1-yl)methyl)-7,8-dihydro-3H-pyrano[4,3-d]pyrimidin-4(5H)-one], the IC50 in assay [2] is 33 ± 2 nM; in assay [3] (Homo sapiens), under 0.5 nM; in assay [4] (Homo sapiens, 72 h) it was 43 nM. The AC50 with Axin2 protein (Homo sapiens) stood at 16 ± 1 nM.

As to `COc1ccc2c(c1)CC1(CCN([C@H]3CCN(Cc4nc5c(c(=O)[nH]4)COCC5)C3=O)CC1)C2=O` [Example 16], the values for the half-maximal inhibitory concentration (IC50) in assay [2], in assay [3] and in assay [4] were 12 ± 1 nM, 1.7 ± 0.2 nM and 82 nM, respectively. In addition, in the assay with Axin2 protein, the concentration at half-maximal activity (AC50) was found to be 7 ± 1 nM.

As for `COc1ccc2c(c1)CC1(CCN([C@@H]3CCN(Cc4nc5c(c(=O)[nH]4)COCC5)C3=O)CC1)C2=O` [Example 17], the figures for the IC50 in assay [2], in assay [3] and in assay [4] were 3850 ± 480 nM, 396 ± 10 nM and 2000 ± 900 nM, respectively. The concentration at half-maximal activity (AC50) in the assay with Axin2 protein turned out to be 1790 ± 140 nM.

For the molecule `COc1ccc(C(=O)C2CCN(C3CCCN(Cc4nc5c(c(=O)[nH]4)COCC5)C3=O)CC2)cc1` (stereo not drawn) [Example 18, 2-[4-(4-Methoxy-benzoyl)-2′-oxo-[1,3′]bipiperidinyl-1′-ylmethyl]-3,5,7,8-tetrahydro-pyrano[4,3-d]pyrimidin-4-one], the IC50 is 15 ± 1 nM in assay [1]; 46 ± 1 nM in assay [2]; 5.6 ± 0.7 nM in assay [3] (Homo sapiens); 99 nM in assay [4] (Homo sapiens, 72 h). The AC50 with Axin2 protein (Homo sapiens) came out at 51 ± 7 nM.

As to `COc1ccc(C(=O)C2CCN(C3CCN(Cc4nccc(=O)[nH]4)C3=O)CC2)cc1` (stereo not drawn) [Example 22, 2-{3-[4-(4-Methoxy-benzoyl)-piperidin-1-yl]-2-oxo-pyrrolidin-1-ylmethyl}-3H-pyrimidin-4-one], the figures for the IC50 in assay [1], in assay [2] and in assay [3] (Homo sapiens) were 764 ± 56 nM, 1500 ± 120 nM and 390 ± 190 nM, respectively.

For `COc1ccc(C(=O)C2CCN(C3CCN(Cc4nc5ccccc(=O)c5[nH]4)C3=O)CC2)cc1` (stereo not drawn) [Example 27, 2-((3-(4-(4-methoxybenzoyl)piperidin-1-yl)-2-oxopyrrolidin-1-yl)methyl)cyclohepta[d]imidazol-4(3H)-one], the IC50 in assay [2] came out at 36 ± 3 nM; in assay [3] (Homo sapiens), 0.4 ± 0.3 nM; in assay [4] (Homo sapiens, 72 h), 1.5 nM. Further, the AC50 with Axin2 protein (Homo sapiens) worked out at 3.2 ± 0.1 nM.

For `COc1ccc(C(=O)C2CCN([C@H]3CCN(Cc4nc5ccccc(=O)c5[nH]4)C3=O)CC2)cc1` [Example 30, 2-{(S)-3-[4-(4-Methoxy-benzoyl)-piperidin-1-yl]-2-oxo-pyrrolidin-1-ylmethyl}-3H-cycloheptaimidazol-4-one], the IC50 in assay [2] is 9.5 ± 0.7 nM; in assay [3] (Homo sapiens) it was 1.1 ± 0.1 nM; in assay [4] (Homo sapiens, 72 h), 0.86 ± 0.1 nM. In the assay on Axin2 protein (Homo sapiens), the AC50 came out at 0.6 ± 0.1 nM.

Turning to `COc1ccc(C(=O)C2CCN([C@H]3CCN(CC(=O)Nc4nnc5n4CCS5)C3=O)CC2)cc1` [Example 33], the IC50 is 830 ± 20 nM in assay [2] and 1610 nM in assay [4]. Also, the AC50 in the assay on Axin2 protein was 1340 ± 110 nM.

Take `COc1ccc(C(=O)C2CCN(C3CCN(CC(=O)Nc4nnnn4C)C3=O)CC2)cc1` (stereo not drawn) [Example 36, 2-(3-(4-(4-methoxybenzoyl)piperidin-1-yl)-2-oxopyrrolidin-1-yl)-N-(1-methyl-1H-tetrazol-5-yl)acetamide]: the half-inhibitory concentration (IC50) in assay [1] is 1480 ± 20 nM; in assay [2], 3080 ± 230 nM; in assay [3] (Homo sapiens), 7600 ± 800 nM; in assay [4] (Homo sapiens, 72 h), over 10000 nM.

As for `COc1ccc(C(=O)C2CCN(C3CCN(CC(=O)Nc4nncc5c4CCCO5)C3=O)CC2)cc1` (stereo not drawn) [Example 37, N-(3,4-dihydro-2H-pyrano[2,3-d]pyridazin-5-yl)-2-(3-(4-(4-methoxybenzoyl)piperidin-1-yl)-2-oxopyrrolidin-1-yl)acetamide], the IC50 in assay [1] was found to be 970 ± 60 nM; in assay [2] it was 3010 ± 60 nM; in assay [3] (Homo sapiens), 396 ± 26 nM; in assay [4] (Homo sapiens, 72 h), 2230 nM.

For the molecule `COc1ccc(C(=O)C2CCN(C3CCN(CC(=O)Nc4noc5ncccc45)C3=O)CC2)cc1` (stereo not drawn) [Example 38, N-(isoxazolo[5,4-b]pyridin-3-yl)-2-(3-(4-(4-methoxybenzoyl)piperidin-1-yl)-2-oxopyrrolidin-1-yl)acetamide], the IC50 is 4560 ± 40 nM in assay [1]; 6500 ± 800 nM in assay [2]; 2030 ± 180 nM in assay [3] (Homo sapiens); 7900 nM in assay [4] (Homo sapiens, 72 h).

(Values after patent publication US9163003B2, “4-piperidinyl compounds for use as tankyrase inhibitors” (NOVARTIS AG, priority 2011, dated 2015).)
